In patent US20250230172A1 (Vanqua Bio, Inc., priority 2021, published 2025):

Target: T1, GCase (Homo sapiens, UniProt P04062)
T1 construct: endogenous in cells; host or cells: HeLa cells
T1 sequence (P04062 40-536): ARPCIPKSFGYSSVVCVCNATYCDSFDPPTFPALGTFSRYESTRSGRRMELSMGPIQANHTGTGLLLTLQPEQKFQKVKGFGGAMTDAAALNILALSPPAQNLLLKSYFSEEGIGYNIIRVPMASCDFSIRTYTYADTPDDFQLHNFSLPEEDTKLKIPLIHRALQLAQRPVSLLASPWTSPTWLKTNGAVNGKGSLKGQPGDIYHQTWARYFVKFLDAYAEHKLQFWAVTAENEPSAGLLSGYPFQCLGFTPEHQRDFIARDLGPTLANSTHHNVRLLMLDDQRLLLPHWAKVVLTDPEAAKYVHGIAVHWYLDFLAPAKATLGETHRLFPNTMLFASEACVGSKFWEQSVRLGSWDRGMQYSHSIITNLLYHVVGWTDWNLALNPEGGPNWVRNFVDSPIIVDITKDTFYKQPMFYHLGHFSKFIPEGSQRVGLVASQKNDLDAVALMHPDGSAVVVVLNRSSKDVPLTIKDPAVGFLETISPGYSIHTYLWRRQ
Test: live cell PFB assay in HELA cells for activation of GCase
Format: cell-based
Procedure: Exemplary compounds were evaluated for activation of GCase in a live cell PFB assay in HELA cells (essentially as described in Ysselstein et al., “LRRK2 kinase activity regulates lysosomal glucocerebrosidase in neurons derived from Parkinson's disease patients” Nature Communications (2019) 10:5570). […] EC50 ranges: A: <10 μM; B: >10-50 μM; C: >50-100 μM; D: >100 μM.

| Structure (SMILES) | EC50 [µM] |
| --- | --- |
| FC(F)(F)c1ccnc(N2C[C@H]3CCN(c4cncc(-c5nncs5)n4)C[C@H]3C2)c1 (racemic) [Compound 19, rac-2-[(3aR,7aS)-2-[4-(trifluoromethyl)pyridin-2-yl]-octahydro-1H-pyrrolo[3,4-c]pyridin-5-yl]-6-(1,3,4-thiadiazol-2-yl)pyrazine] | > 100 |
| FC(F)Cn1ncc2ncc(N3CC[C@@H]4CN(c5cncc(C(F)(F)F)c5)C[C@@H]4C3)nc21 (racemic) [Compound 10, rac-3-[(3aR,7aS)-5-[1-(2,2-difluoroethyl)-1H-pyrazolo[3,4-b]pyrazin-6-yl]-octahydro-1H-pyrrolo[3,4-c]pyridin-2-yl]-5-(trifluoromethyl)pyridine] | 10 to 50 |
| O=C(c1ccc2cc[nH]c2c1)N1CCN2C[C@H](Oc3cccnc3C(F)(F)F)C[C@H]2C1 [Compound 28, 6-[(7R,8aS)-7-{[2-(trifluoromethyl)pyridin-3-yl]oxy}-octahydropyrrolo[1,2-a]pyrazine-2-carbonyl]-1H-indole] | 10 to 50 |
| FC(F)Cn1ncc2ncc(N3CC[C@@H]4CN(c5ccnc(C(F)(F)F)c5)C[C@@H]4C3)nc21 (racemic) [Compound 21, rac-4-[(3aR,7aS)-5-[1-(2,2-difluoroethyl)-1H-pyrazolo[3,4-b]pyrazin-6-yl]-octahydro-1H-pyrrolo[3,4-c]pyridin-2-yl]-2-(trifluoromethyl)pyridine] | < 10 |
| FC(F)Cn1ncc2ncc(N[C@H]3C[C@@H]4CN(c5nccc(C(F)(F)F)n5)C[C@@H]4C3)nc21 [Compound 85, 1-(2,2-difluoroethyl)-N-((3aR,5s,6aS)-2-(4-(trifluoromethyl)pyrimidin-2-yl)octahydrocyclopenta[c]pyrrol-5-yl)-1H-pyrazolo[3,4-b]pyrazin-6-amine] | < 10 |
| FC(F)Cn1ncc2ncc(N[C@H]3C[C@@H]4CN(c5ccnc(C(F)(F)F)n5)C[C@@H]4C3)nc21 [Compound 87, 1-(2,2-difluoroethyl)-N-((3aR,5s,6aS)-2-(2-(trifluoromethyl)pyrimidin-4-yl)octahydrocyclopenta[c]pyrrol-5-yl)-1H-pyrazolo[3,4-b]pyrazin-6-amine] | < 10 |
| FC(F)Cn1ncc2ncc(N3CC[C@H]4CN(c5cc(C(F)(F)F)ccn5)C[C@H]43)nc21 (racemic) [Compound 58, rac-2-[(3aR,6aR)-1-[1-(2,2-difluoroethyl)-1H-pyrazolo[3,4-b]pyrazin-6-yl]-octahydropyrrolo[3,4-b]pyrrol-5-yl]-4-(trifluoromethyl)pyridine] | 10 to 50 |
| FC(F)Cn1ncc2ncc(N3CC[C@@H]4CN(c5ccc(C(F)(F)F)cn5)C[C@H]4C3)nc21 (single isomer, unassigned) [Compound 68] | 10 to 50 |
| FC(F)Cn1ncc2ncc(N[C@H]3CC[C@@H]4CN(c5cccnc5C(F)(F)F)C[C@@H]4C3)nc21 (single isomer, unassigned) [Compound 74] | 10 to 50 |
| FC(F)Cn1ncc2ncc(N[C@H]3C[C@@H]4CN(c5ccc(C(F)(F)F)nn5)C[C@@H]4C3)nc21 [Compound 82, 1-(2,2-difluoroethyl)-N-((3aR,5s,6aS)-2-(6-(trifluoromethyl)pyridazin-3-yl)octahydrocyclopenta[c]pyrrol-5-yl)-1H-pyrazolo[3,4-b]pyrazin-6-amine] | 10 to 50 |
| FC(F)Cn1ncc2ncc(N[C@@H]3C[C@@H]4CN(c5ccc(C(F)(F)F)nc5)C[C@@H]4C3)nc21 [Compound 39, (3aR,5S,6aS)—N-[1-(2,2-difluoroethyl)-1H-pyrazolo[3,4-b]pyrazin-6-yl]-2-[6-(trifluoromethyl)pyridin-3-yl]-octahydrocyclopenta[c]pyrrol-5-amine] | < 10 |
| FC(F)Cn1ncc2ncc(N[C@H]3C[C@@H]4CN(c5cc(C(F)(F)F)ncn5)C[C@@H]4C3)nc21 [Compound 90, 1-(2,2-difluoroethyl)-N-((3aR,5s,6aS)-2-(6-(trifluoromethyl)pyrimidin-4-yl)octahydrocyclopenta[c]pyrrol-5-yl)-1H-pyrazolo[3,4-b]pyrazin-6-amine] | < 10 |
| FC(F)Cn1ncc2ncc(N[C@@H]3CC[C@@H]4CN(c5cc(C(F)(F)F)ccn5)C[C@@H]4C3)nc21 (single isomer, unassigned) [Compound 73] | 10 to 50 |
| FC(F)Cn1ncc2ncc(N3C[C@@H]4CN(c5cc(C(F)(F)F)ccn5)C[C@H]4C3)nc21 (racemic) [Compound 44, rac-2-[(3aR,6aR)-5-[1-(2,2-difluoroethyl)-1H-pyrazolo[3,4-b]pyrazin-6-yl]-octahydropyrrolo[3,4-c]pyrrol-2-yl]-4-(trifluoromethyl)pyridine] | > 100 |
| FC(F)Cn1ncc2ncc(N[C@H]3C[C@@H]4CN(c5ncncc5C(F)(F)F)C[C@@H]4C3)nc21 [Compound 91, 1-(2,2-difluoroethyl)-N-((3aR,5s,6aS)-2-(5-(trifluoromethyl)pyrimidin-4-yl)octahydrocyclopenta[c]pyrrol-5-yl)-1H-pyrazolo[3,4-b]pyrazin-6-amine] | < 10 |
| FC(F)Cn1ncc2ncc(N[C@H]3C[C@@H]4CN(c5nccnc5C(F)(F)F)C[C@@H]4C3)nc21 [Compound 80, 1-(2,2-difluoroethyl)-N-((3aR,5s,6aS)-2-(3-(trifluoromethyl)pyrazin-2-yl)octahydrocyclopenta[c]pyrrol-5-yl)-1H-pyrazolo[3,4-b]pyrazin-6-amine] | < 10 |
| FC(F)Cn1ncc2ncc(N3CC[C@H]4[C@@H]3CCN4c3cc(C(F)(F)F)ccn3)nc21 (racemic) [Compound 56, rac-2-[(3aR,6aR)-4-[1-(2,2-difluoroethyl)-1H-pyrazolo[3,4-b]pyrazin-6-yl]-octahydropyrrolo[3,2-b]pyrrol-1-yl]-4-(trifluoromethyl)pyridine] | < 10 |
| FC(F)Cn1ncc2ncc(N3C[C@H]4CCN(c5ccc(C(F)(F)F)cn5)C[C@H]4C3)nc21 (racemic) [Compound 18] | 10 to 50 |
| FC(F)Cn1ncc2ncc(N[C@@H]3C[C@@H]4CN(c5ccc(C(F)(F)F)cn5)C[C@@H]4C3)nc21 [Compound 51, (3aR,5S,6aS)—N-[1-(2,2-difluoroethyl)-1H-pyrazolo[3,4-b]pyrazin-6-yl]-2-[5-(trifluoromethyl)pyridin-2-yl]-octahydrocyclopenta[c]pyrrol-5-amine] | < 10 |
| COc1nccnc1N1C[C@H]2C[C@H](Nc3cnc4cnn(CC(F)F)c4n3)C[C@H]2C1 [Compound 81, 1-(2,2-difluoroethyl)-N-((3aR,5s,6aS)-2-(3-methoxypyrazin-2-yl)octahydrocyclopenta[c]pyrrol-5-yl)-1H-pyrazolo[3,4-b]pyrazin-6-amine] | 10 to 50 |
| FC(F)Cn1ncc2ncc(N3C[C@@H]4CN(c5cccc(C(F)(F)F)n5)C[C@H]4C3)nc21 (racemic) [Compound 46, rac-2-[(3aR,6aR)-5-[1-(2,2-difluoroethyl)-1H-pyrazolo[3,4-b]pyrazin-6-yl]-octahydropyrrolo[3,4-c]pyrrol-2-yl]-6-(trifluoromethyl)pyridine] | 50 to 100 |
| FC(F)Cn1ncc2ncc(N3C[C@H]4CN(c5ccc(C(F)(F)F)nc5)C[C@H]4C3)nc21 [Compound 47, rac-5-[(3aR,6aS)-5-[1-(2,2-difluoroethyl)-1H-pyrazolo[3,4-b]pyrazin-6-yl]-octahydropyrrolo[3,4-c]pyrrol-2-yl]-2-(trifluoromethyl)pyridine] | 10 to 50 |
| FC(F)Cn1ncc2ncc(N[C@@H]3CC[C@@H]4CN(c5cccnc5C(F)(F)F)C[C@@H]4C3)nc21 (single isomer, unassigned) [Compound 75] | > 100 |
| FC(F)Cn1ncc2ncc(N[C@H]3CC[C@@H]4CN(c5cccc(C(F)(F)F)n5)C[C@@H]4C3)nc21 (single isomer, unassigned) [Compound 70] | < 10 |
| FC(F)Cn1ncc2ncc(N3C[C@@H]4CCN(c5cc(C(F)(F)F)ccn5)[C@@H]4C3)nc21 (racemic) [Compound 60, rac-2-[(3aR,6aR)-5-[1-(2,2-difluoroethyl)-1H-pyrazolo[3,4-b]pyrazin-6-yl]-octahydropyrrolo[2,3-c]pyrrol-1-yl]-4-(trifluoromethyl)pyridine] | 10 to 50 |
| FC(F)Cn1ncc2ncc(N3C[C@H]4CCN(c5cnccc5C(F)(F)F)C[C@H]4C3)nc21 (racemic) [Compound 24, rac-3-[(3aR,7aR)-2-[1-(2,2-difluoroethyl)-1H-pyrazolo[3,4-b]pyrazin-6-yl]-octahydro-1H-pyrrolo[3,4-c]pyridin-5-yl]-4-(trifluoromethyl)pyridine] | 10 to 50 |
| FC(F)Cn1ncc2ncc(N3CC[C@H]4[C@@H]3CCN4c3cccc(C(F)(F)F)n3)nc21 (racemic) [Compound 57, rac-2-[(3aR,6aR)-4-[1-(2,2-difluoroethyl)-1H-pyrazolo[3,4-b]pyrazin-6-yl]-octahydropyrrolo[3,2-b]pyrrol-1-yl]-6-(trifluoromethyl)pyridine] | 10 to 50 |
| O=C(c1ccc2ccn(CC3COC3)c2c1)N1CC[C@@H]2CN(c3cc(C(F)(F)F)ccn3)C[C@@H]2C1 (racemic) [Compound 9, rac-6-[(3aR,7aS)-2-[4-(trifluoromethyl)pyridin-2-yl]-octahydro-1H-pyrrolo[3,4-c]pyridine-5-carbonyl]-1-[(oxetan-3-yl)methyl]-1H-indole] | 10 to 50 |
